In this assay the target is T1, GST-RIPK1 (recombinant GST-RIPK1 kinase domain (residues 1-327)) (Homo sapiens, UniProt Q13546).
T1 construct: recombinant GST-RIPK1 kinase domain (residues 1-327) enzyme produced from baculovirus-transfected Sf21 cells; host or cells: baculovirus-transfected Sf21 insect cells
T1 sequence (Q13546 1-327): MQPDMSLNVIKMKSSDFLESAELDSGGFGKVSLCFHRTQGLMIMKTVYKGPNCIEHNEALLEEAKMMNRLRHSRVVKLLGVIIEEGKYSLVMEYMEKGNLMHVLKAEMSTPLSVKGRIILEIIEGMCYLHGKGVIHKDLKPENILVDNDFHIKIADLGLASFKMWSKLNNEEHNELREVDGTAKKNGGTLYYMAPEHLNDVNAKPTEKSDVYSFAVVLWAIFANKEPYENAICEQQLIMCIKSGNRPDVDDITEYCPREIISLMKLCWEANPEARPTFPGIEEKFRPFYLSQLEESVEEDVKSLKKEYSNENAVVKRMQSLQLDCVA
The assay can be described thus: RIPK1-ADP-Glo Enzymatic Assay. The settings on record: ten-point titration, top compound concentration of 100000 nM; 25 nM GST-RIPK1, 300 μM ATP, 3 μM dephosphorylated-MBP; 30 min pre-incubation, 150 min reaction. The class given is biochemical. The method in brief:
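GST-RIPK1 kinase domain (residues 1-327, Sf21-expressed), 25 nM, preincubated 30 min with compound, then reacted 150 min with 300 μM ATP and 3 μM dephosphorylated MBP in pH 7.3 Hepes buffer, 1% DMSO. ADP measured by ADP-Glo luminescence; EC50 from ten-point titration (top 100000 nM), four-parameter fit.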
A general note: In ADP-Glo the light output rises with the ADP produced.

As a reminder, the EC50 is the concentration at which the effect is half-maximal.

Take `CC(OC1CC2(C1)OC1CCC(c3cc(F)cc(F)c3)N1C2=O)c1ccccc1` (single isomer, unassigned) [Example 15.2, ((1R or S),3R,5′S,7a′R)-5′-(3,5-difluorophenyl)-3-((S or R)-1-phenylethoxy)tetrahydro-3′H-spiro[cyclobutane-1,2′-pyrrolo[2,1-b]oxazol]-3′-one]: the concentration for a half-maximal effect (EC50) was 70 nM.

Take `O=C1N2C(CC[C@H]2c2cnccn2)OC12CC(OCc1cncc(OCCF)c1)C2` (stereo partly drawn) [Example 18.77, (5′S)-3-{[5-(2-fluoroethoxy)pyridin-3-yl]methoxy}-5′-(pyrazin-2-yl)tetrahydro-3′H-spiro[cyclobutane-1,2′-pyrrolo[2,1-b][1,3]oxazol]-3′-one]: the EC50 worked out at 174 nM.

As for `N#Cc1ccnc(O[C@H]2C[C@@]3(C2)O[C@@H]2CC[C@@H](c4cc(F)cc(F)c4)N2C3=O)c1` [Example 10.1, 2-(((1r,3R,5′S,7a′R)-5′-(3,5-difluorophenyl)-3′-oxotetrahydro-3′H-spiro[cyclobutane-1,2′-pyrrolo[2,1-b]oxazol]-3-yl)oxy)isonicotinonitrile], the concentration for a half-maximal effect (EC50) was 9 nM.

As to `COc1cc(OC2CC3(C2)O[C@@H]2CC[C@@H](c4ccccc4)N2C3=O)ccc1F` (stereo partly drawn) [Example 8.18, (5′S,7a′R)-3-(4-fluoro-3-methoxyphenoxy)-5′-phenyltetrahydro-3′H-spiro[cyclobutane-1,2′-pyrrolo[2,1-b][1,3]oxazol]-3′-one], the half-maximal effective concentration (EC50) amounted to 21 nM.

`N#Cc1cc(F)cc([C@@H]2CC[C@H]3O[C@]4(C[C@H](Oc5cc(C#N)ncn5)C4)C(=O)N32)c1` [Example 9.44, 6-(((5′S,7a′R)-5′-(3-cyano-5-fluorophenyl)-3′-oxotetrahydro-3′H-spiro[cyclobutane-1,2′-pyrrolo[2,1-b]oxazol]-3-yl)oxy)pyrimidine-4-carbonitrile]: the EC50 is 28 nM.

Regarding `O=C1N2[C@@H](CC[C@H]2c2cnccn2)OC12CC(Oc1ccc(F)c(F)c1)C2` (stereo partly drawn) [Example 19.22, (5′S,7a′R)-3-(3,4-difluorophenoxy)-5′-(pyrazin-2-yl)tetrahydro-3′H-spiro[cyclobutane-1,2′-pyrrolo[2,1-b][1,3]oxazol]-3′-one], the EC50 was determined as 12 nM.

In the case of `O=C1N2[C@@H](CC[C@H]2c2cnccn2)OC12CC(OCC1CCC1)C2` (single isomer, unassigned) [Example 23.1, (5′S,7a′R)-3-(cyclobutylmethoxy)-5′-(pyrazin-2-yl)tetrahydro-3′H-spiro[cyclobutane-1,2′-pyrrolo[2,1-b]oxazol]-3′-one], the half-maximal effective concentration (EC50) is 460 nM.

Consider `O=C1N2[C@@H](CC[C@H]2c2cnccn2)OC12CC(OCc1cccc(F)c1)C2` (single isomer, unassigned) [Example 22.5], for which the 50% effective concentration (EC50) amounted to 15 nM.

Regarding `O=C1N2C(CC[C@H]2c2cnccn2)OC12CC(OCc1cnn(-c3ccncc3)c1)C2` (stereo partly shown) [Example 18.101], the EC50 is 367 nM.

In the case of `O=C(O[C@H]1C[C@@]2(C1)O[C@@H]1CC[C@@H](c3cc(F)cc(F)c3)N1C2=O)c1ccccn1` [Example 13, (1r,3R,5′S,7a′R)-5′-(3,5-difluorophenyl)-3′-oxotetrahydro-3′H-spiro[cyclobutane-1,2′-pyrrolo[2,1-b]oxazol]-3-yl picolinate], the concentration giving a half-maximal response (EC50) was determined as 165 nM.

Take `O=C1N2[C@@H](CC[C@H]2c2cnccn2)OC12CC(OCc1ccc3scnc3c1)C2` (stereo partly drawn) [Example 20.7, (5′S,7a′R)-3-[(1,3-benzothiazol-5-yl)methoxy]-5′-(pyrazin-2-yl)tetrahydro-3′H-spiro[cyclobutane-1,2′-pyrrolo[2,1-b][1,3]oxazol]-3′-one]: the half-maximal effective concentration (EC50) stood at 86 nM.

As for `Cc1cc2c(O[C@H]3C[C@@]4(C3)O[C@@H]3CC[C@@H](c5cc(F)cc(F)c5)N3C4=O)ncnc2s1` [Example 9.33, (1r,3R,5′S,7a′R)-5′-(3,5-difluorophenyl)-3-[(6-methylthieno[2,3-d]pyrimidin-4-yl)oxy]tetrahydro-3′H-spiro[cyclobutane-1,2′-pyrrolo[2,1-b][1,3]oxazol]-3′-one], the 50% effective concentration (EC50) came out at 8 nM.

For `O=C1N2[C@@H](CC[C@H]2c2cnccn2)OC12CC(Oc1cncc(Cl)c1)C2` (stereo partly drawn) [Example 19.18, (5′S,7a′R)-3-[(5-chloropyridin-3-yl)oxy]-5′-(pyrazin-2-yl)tetrahydro-3′H-spiro[cyclobutane-1,2′-pyrrolo[2,1-b][1,3]oxazol]-3′-one], the EC50 is 23 nM.

As for `O=C1N2C(CC[C@H]2c2cnccn2)OC12CC(OCc1ccc(N3CCOCC3)nc1)C2` (stereo partly drawn) [Example 18.35, (5′S)-3-{[6-(morpholin-4-yl)pyridin-3-yl]methoxy}-5′-(pyrazin-2-yl)tetrahydro-3′H-spiro[cyclobutane-1,2′-pyrrolo[2,1-b][1,3]oxazol]-3′-one], the EC50 was determined as 14 nM.

Take `N#Cc1ccc2c(O[C@H]3C[C@@]4(C3)O[C@@H]3CC[C@@H](c5ccc(F)cc5)N3C4=O)ncnn12` [Example 11.3, 4-(((1r,3R,5′S,7a′R)-5′-(4-fluorophenyl)-3′-oxotetrahydro-3′H-spiro[cyclobutane-1,2′-pyrrolo[2,1-b]oxazol]-3-yl)oxy)pyrrolo[2,1-f][1,2,4]triazine-7-carbonitrile]: the 50% effective concentration (EC50) was found to be 19 nM.

As for `CC(OC1CC2(C1)O[C@@H]1CC[C@@H](c3cc(F)cc(F)c3)N1C2=O)c1ncccc1F` (single isomer, unassigned) [Example 12.5, (1R or S,3S or r,5′S,7a′R)-5′-(3,5-difluorophenyl)-3-((S or R)-1-(3-fluoropyridin-2-yl)ethoxy)tetrahydro-3′H-spiro[cyclobutane-1,2′-pyrrolo[2,1-b]oxazol]-3′-one], the concentration for a half-maximal effect (EC50) amounted to 305 nM.

For the origin of these results see patent US20250154173A1 (Merck Sharp & Dohme LLC, priority 2023, published 2025).
